According to patent publication US7977056B2, “Methods of identifying stimulants for biogenic methane production from hydrocarbon-bearing formations” (Synthetic Genomics, Inc., priority 2008, dated 2011):
Entries after “also recorded” stand apart in the source; their conditions may differ.

These compounds were tested on defined microbial assemblage (assay: Stimulation of methane production by a defined microbial assemblage grown on coal as sole carbon source). Details: defined microbial assemblage, in vitro culture with coal as sole carbon source, after stimulation with the substance.
Assay type: cell-based
Method: The availability of a defined microbial assemblage producing methane from coal in vitro, as well as a suite of strains capable of aerobic coal degradation prompted laboratory experiments where various stimulants were tested for their effect on methane production.
This degradation is stimulated by the addition of oxygen as reactant for the oxygenase-classes of enzymes present in some of the strains included in the DMA.

Question: `[HH]` [H2, hydrogen] was tested. Which methane production did it give?
Answer: increased methane production

Question: How did the methane production turn out when `CC(=O)O` [acetate] was run?
Answer: increased methane production

Question: With `OCC(O)CO` [glycerol] as the compound, how does the methane production read?
Answer: increased methane production

Question: For `O=O` [oxygen], which methane production is on record?
Answer: greatest increase in methane production; also recorded: increased methane production

Question: Which methane production does the source give for `CN(C)C` [trimethylamine] here?
Answer: increased methane production

Same assay, conditions: oxygen applied at higher than optimal levels

Question: Which methanogenesis does the source give for `O=O` [oxygen] here?
Answer: represses methanogenesis
